Several values for one entry are separate records, joined by “and”; a condition that tells them apart may be missing. Equal entries are not always repeated. Inconclusive results and toxic doses are left out.
System: BDF1 mice, P388 leukemia ip, median survival T/C
Test: NCI In Vivo Anticancer Drug Screen. Data for tumor model P388 Leukemia (intraperitoneal) in B6D2F1 (BDF1) mice
Settings: endpoint: median survival time, higher = longer survival
Procedure, shortened: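 T/C = treated-group survival ÷ vehicle-control survival; tumour transplanted into mice before dosing.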

[1] = dose: 3.12 mg/kg/injection, schedule: Q01DX009 (ip), vehicle: Klucel (hydroxypropylcellulose) (HPC)
[2] = dose: 6.25 mg/kg/injection, schedule: Q01DX009 (ip), vehicle: Klucel (hydroxypropylcellulose) (HPC)
[3] = dose: 12.5 mg/kg/injection, schedule: Q01DX009 (ip), vehicle: Klucel (hydroxypropylcellulose) (HPC)
[4] = dose: 25.0 mg/kg/injection, schedule: Q04DX003 (ip), vehicle: saline with Tween-80
[5] = dose: 50.0 mg/kg/injection, schedule: Q04DX003 (ip), vehicle: saline with Tween-80
[6] = dose: 100.0 mg/kg/injection, schedule: Q04DX003 (ip), vehicle: saline with Tween-80
[7] = dose: 50.0 mg/kg/injection, schedule: Q01DX009 (ip), vehicle: saline with Tween-80
[8] = dose: 100.0 mg/kg/injection, schedule: Q01DX009 (ip), vehicle: saline with Tween-80
[9] = dose: 200.0 mg/kg/injection, schedule: Q01DX009 (ip), vehicle: saline with Tween-80
[10] = dose: 200.0 mg/kg/injection, schedule: Q04DX003 (ip), vehicle: saline with Tween-80
[11] = dose: 400.0 mg/kg/injection, schedule: Q04DX003 (ip), vehicle: saline with Tween-80
[12] = dose: 12.5 mg/kg/injection, schedule: Q01DX009 (ip), vehicle: saline
[13] = dose: 25.0 mg/kg/injection, schedule: Q01DX009 (ip), vehicle: saline
[14] = dose: 25.0 mg/kg/injection, schedule: Q01DX009 (ip), vehicle: saline with Tween-80
[15] = dose: 400.0 mg/kg/injection, schedule: Q01DX009 (ip), vehicle: saline with Tween-80
[16] = dose: 100.0 mg/kg/injection, schedule: Q04DX003 (ip), vehicle: Klucel (hydroxypropylcellulose) (HPC)
[17] = dose: 200.0 mg/kg/injection, schedule: Q04DX003 (ip), vehicle: Klucel (hydroxypropylcellulose) (HPC)
[18] = dose: 100.0 mg/kg/injection, schedule: Q01DX009 (ip), vehicle: Klucel (hydroxypropylcellulose) (HPC)
[19] = dose: 200.0 mg/kg/injection, schedule: Q01DX009 (ip), vehicle: Klucel (hydroxypropylcellulose) (HPC)
[20] = dose: 400.0 mg/kg/injection, schedule: Q04DX003 (ip), vehicle: Klucel (hydroxypropylcellulose) (HPC)

For `N#CC(=C=[N-])[n+]1ccccc1`, the T/C [1] was 110 % of control, the T/C [2] was 110 % of control and the T/C [3] was 100 % of control. The T/C (dose: 18.0 mg/kg/injection, schedule: Q01DX009 (ip), vehicle: Klucel (hydroxypropylcellulose) (HPC)) was 100 % of control and the T/C (dose: 28.0 mg/kg/injection, schedule: Q01DX009 (ip), vehicle: Klucel (hydroxypropylcellulose) (HPC)) was 115 % of control.

In the case of `CC(C)=CC(=O)CC(O)(C(F)(F)F)C(F)(F)Cl` (stereo not given), the T/C [4] is reported as 100 % of control, the T/C [5] is reported as 95 % of control and the T/C [6] is reported as 109 % of control.

In the case of `O=[N+]([O-])c1ccc(NS(=O)(=O)c2cc(Cl)ccc2Cl)c([N+](=O)[O-])c1`, the T/C [7] is reported as 105 % of control, the T/C [8] is reported as 102 % of control and the T/C [9] is reported as 110 % of control.

With `Cc1c2ccccc2cc2cccc[n+]12` the T/C (dose: 0.63 mg/kg/injection, schedule: Q01DX010 (ip), vehicle: saline) was 100 % of control, the T/C (dose: 1.25 mg/kg/injection, schedule: Q01DX010 (ip), vehicle: saline) was 100 % of control and the T/C (dose: 2.5 mg/kg/injection, schedule: Q01DX010 (ip), vehicle: saline) was 105 % of control and 120 % of control. For the same molecule, the T/C (dose: 10.0 mg/kg/injection, schedule: Q01DX010 (ip), vehicle: saline) was 150 % of control, the T/C (dose: 40.0 mg/kg/injection, schedule: Q04DX003 (ip), vehicle: saline) was 150 % of control and the T/C (dose: 80.0 mg/kg/injection, schedule: Q04DX003 (ip), vehicle: saline) was 100 % of control.

`C=Cn1cnc2c(N)ncnc21` was tested, and the T/C [6] was 103 % of control, the T/C [10] was 113 % of control and the T/C [11] was 106 % of control.

For `c1ccc(CNc2ncncc2-c2ccccc2)cc1`, the T/C [7] was 98 % of control, the T/C [8] was 105 % of control and the T/C [9] was 99 % of control.

For `CSc1nnc([N+](=O)[O-])s1`, the T/C (dose: 1.56 mg/kg/injection, schedule: Q01DX009 (ip), vehicle: Klucel (hydroxypropylcellulose) (HPC)) was 110 % of control, the T/C [1] was 100 % of control and the T/C [2] was 110 % of control.

For `O=N[O-].[Co].[N-]=C=S.[NH2-].[NH2-].[NH2-].[NH2-]`, the T/C (dose: 6.25 mg/kg/injection, schedule: Q01DX009 (ip), vehicle: saline) was 95 % of control, the T/C [12] was 93 % of control and the T/C [13] was 112 % of control. The T/C [5] was 120 % of control.

`S=C1Cc2[nH]c(=S)sc(=S)c2C(=S)N1` was tested, and the T/C (dose: 6.25 mg/kg/injection, schedule: Q01DX009 (ip), vehicle: saline with Tween-80) was 95 % of control, the T/C (dose: 12.5 mg/kg/injection, schedule: Q01DX009 (ip), vehicle: saline with Tween-80) was 99 % of control and the T/C [14] was 101 % of control.

With `CCCCCCCCCCCCCCCC[N+](C)(C)c1nc(Cl)nc(Cl)n1` the T/C (dose: 7.5 mg/kg/injection, schedule: Q01DX009 (ip), vehicle: saline) was 110 % of control, the T/C (dose: 7.5 mg/kg/injection, schedule: Q04DX003 (ip), vehicle: saline) was 109 % of control and the T/C (dose: 15.0 mg/kg/injection, schedule: Q01DX009 (ip), vehicle: saline) was 105 % of control. For the same molecule, the T/C (dose: 15.0 mg/kg/injection, schedule: Q04DX003 (ip), vehicle: saline) was 113 % of control, the T/C (dose: 30.0 mg/kg/injection, schedule: Q01DX009 (ip), vehicle: saline) was 105 % of control and the T/C (dose: 30.0 mg/kg/injection, schedule: Q04DX003 (ip), vehicle: saline) was 109 % of control. For the same molecule, the T/C (dose: 60.0 mg/kg/injection, schedule: Q04DX003 (ip), vehicle: saline) was 118 % of control.

For `CCN1CCCC(Nc2nc(C(Cl)(Cl)Cl)nc3cc(Cl)ccc23)C1` (stereo not given), the T/C [14] was 109 % of control, the T/C [7] was 113 % of control and the T/C [8] was 104 % of control.

With `N=C1SCc2ccc3ccccc3c21` the T/C [7] was 104 % of control and the T/C [8] was 106 % of control.

`Nc1cccs1` was tested, and the T/C (dose: 9.38 mg/kg/injection, schedule: Q01DX009 (ip), vehicle: other) was 104 % of control, the T/C (dose: 18.75 mg/kg/injection, schedule: Q01DX009 (ip), vehicle: other) was 100 % of control and the T/C (dose: 37.5 mg/kg/injection, schedule: Q01DX009 (ip), vehicle: other) was 100 % of control. The T/C [7] was 98 % of control, the T/C (dose: 75.0 mg/kg/injection, schedule: Q01DX009 (ip), vehicle: other) was 98 % of control and the T/C [8] was 116 % of control. For the same molecule, the T/C (dose: 150.0 mg/kg/injection, schedule: Q01DX009 (ip), vehicle: other) was 101 % of control, the T/C [9] was 114 % of control and the T/C [15] was 87 % of control.

`OCC(I)C(CO)[n+]1ccccc1` (stereo not given) was tested, and the T/C [12] was 107 % of control, the T/C (dose: 12.5 mg/kg/injection, schedule: Q04DX003 (ip), vehicle: saline) was 88 % of control and the T/C [13] was 107 % of control. The T/C (dose: 25.0 mg/kg/injection, schedule: Q04DX003 (ip), vehicle: saline) was 103 % of control and the T/C (dose: 50.0 mg/kg/injection, schedule: Q04DX003 (ip), vehicle: saline) was 100 % of control.

In the case of `COC(OC)c1[nH]c(=S)[nH]c(=O)c1Cc1cc([N+](=O)[O-])ccc1O`, the T/C [4] is reported as 104 % of control, the T/C [5] is reported as 108 % of control and the T/C [6] is reported as 95 % of control. The T/C [10] was 104 % of control and the T/C [11] was 90 % of control.

For `Cc1ncc(CO)c(C)c1O`, the T/C (dose: 12.5 mg/kg/injection, schedule: Q01DX010 (ip), vehicle: saline) was 100 % of control, the T/C (dose: 25.0 mg/kg/injection, schedule: Q01DX010 (ip), vehicle: saline) was 100 % of control and the T/C (dose: 50.0 mg/kg/injection, schedule: Q01DX010 (ip), vehicle: saline) was 100 % of control. For the same molecule, the T/C (dose: 100.0 mg/kg/injection, schedule: Q01DX010 (ip), vehicle: saline) was 100 % of control.

For `O=C(NNc1ccccc1)C12CC3CC(CC(C3)C1)C2`, the T/C [7] was 96 % of control and the T/C [8] was 91 % of control.

`Nc1ccc2ccccc2c1N=Nc1ccccc1` was tested, and the T/C [16] was 109 % of control and the T/C [17] was 123 % of control.

In the case of `CC(=O)CC(C)=O.CC(=O)CC(C)=O.Cc1ncc[nH]1.Cc1ncc[nH]1.[Co]`, the T/C (dose: 12.5 mg/kg/injection, schedule: Q01DX001 (ip), vehicle: saline with Tween-80) is reported as 100 % of control, the T/C (dose: 25.0 mg/kg/injection, schedule: Q01DX001 (ip), vehicle: saline with Tween-80) is reported as 97 % of control and the T/C (dose: 50.0 mg/kg/injection, schedule: Q01DX001 (ip), vehicle: saline with Tween-80) is reported as 113 % of control.

For `COc1ccc(N=Cc2cccs2)cc1`, the T/C [8] was 119 % of control, the T/C [9] was 96 % of control and the T/C [15] was 100 % of control.

In the case of `CSCCC1NC(=O)C(/C(C)=N\NC(N)=O)=C1O` (stereo not given), the T/C [7] is reported as 108 % of control, the T/C [8] is reported as 115 % of control and the T/C [9] is reported as 92 % of control.

For `C[n+]1cc2c3ccccc3c(N)cc2c2ccccc21`, the T/C (dose: 3.12 mg/kg/injection, schedule: Q01DX009 (ip), vehicle: water) was 157 % of control, the T/C (dose: 6.25 mg/kg/injection, schedule: Q01DX009 (ip), vehicle: water) was 185 % of control and the T/C (dose: 6.25 mg/kg/injection, schedule: Q04DX003 (ip), vehicle: water) was 102 % of control. For the same molecule, the T/C (dose: 12.5 mg/kg/injection, schedule: Q04DX003 (ip), vehicle: water) was 116 % of control, the T/C (dose: 25.0 mg/kg/injection, schedule: Q01DX009 (ip), vehicle: water) was 91 % of control and the T/C (dose: 25.0 mg/kg/injection, schedule: Q04DX003 (ip), vehicle: water) was 98 % of control. The T/C (dose: 100.0 mg/kg/injection, schedule: Q04DX003 (ip), vehicle: water) was 154 % of control and the T/C (dose: 150.0 mg/kg/injection, schedule: Q04DX003 (ip), vehicle: water) was 203 % of control.

For `CC1CCCC/C1=N/NC(N)=O` (stereo not given), the T/C [3] was 95 % of control, the T/C (dose: 25.0 mg/kg/injection, schedule: Q01DX009 (ip), vehicle: Klucel (hydroxypropylcellulose) (HPC)) was 95 % of control and the T/C (dose: 50.0 mg/kg/injection, schedule: Q01DX009 (ip), vehicle: Klucel (hydroxypropylcellulose) (HPC)) was 91 % of control. For the same molecule, the T/C [18] was 104 % of control, the T/C [16] was 100 % of control and the T/C [19] was 86 % of control. The T/C [17] was 95 % of control and the T/C [20] was 95 % of control.

With `CC(=O)N1CCCC1=O` the T/C [18] was 95 % of control, the T/C [16] was 100 % of control and the T/C [19] was 86 % of control. For the same molecule, the T/C [17] was 100 % of control and the T/C [20] was 100 % of control.

With `CC(C)c1ncc([N+](=O)[O-])n1C` the T/C [8] was 100 % of control, the T/C [9] was 87 % of control and the T/C [15] was 100 % of control.

From PubChem BioAssay AID328 (DTP/NCI, 2004)
